From patent publication US20060241096A1, “Agent for preventing or treating organ functional disorders and organ dysfunction” (priority 2001, published 2006)
Marks after values point to notes of the source that are not given here.

Assays:
myocardial infarction = test: Effect on myocardial infarction (Test Example 5); format: in vivo, rat; settings: male Wistar rats, left coronary artery ligated 25 min, 2 hrs reperfusion, mean ± standard error, N = 7-10
Protocol: Each of 6-week old male Wistar rats (7-10 rats per group) was forced oral administration of vehicle, test compound 1 (2, 20 mg/kg), Atorvastatin (2, 20 mg/kg), Simvastatin (2, 20 mg/kg) using a gastric sonde by the volume of 1 mL/kg and once per day for 15 days. After 1 hr of the final administration, the anterior descending-branch of left coronary artery was ligated and reperfused after 25 min. After 2 hrs of reperfusion, Evance blue was intravenously injected from the right cervical vein so that the non-ischemic area was stained and can be distinguished from the ischemic area, and the rats were slaughtered. The ischemic area was carved out, and the living area was stained using p-nitroblue tetrazolium and distinguished from the necrotic area (portion of myocardial infarction). The area of myocardial infarction was calculated by the weight ratio relative to the ischemic area (Table 5).

[1] = test system: ubiquinone (CoQ9) in heart; test: Ubiquinone increasing effect in heart (Test Example 1); format: in vivo, rat; settings: male SD rats, mean ± standard error, N = 8
Protocol: (§1) Each of 6-week old male SD rats (eight rats per group) was forced oral administration of a vehicle or test compound 1 using a gastric sonde by the volume of 5 mL/kg so that the doses became 6, 20, 60 mg/kg, respectively, once a day for 14 days. On the morning after 14 times of administration, the animals were beheaded to slaughter. Hearts were collected immediately, frozen in liquid nitrogen and stored at −80° C. On the following day, the hearts were homogenized and oxidized with iron(III) chloride. After extraction with ethanol/hexane, the concentration of ubiquinone was determined by HPLC (Table 1).

[2] = test system: ubiquinone (CoQ9, CoQ10) in brain; test: Ubiquinone increasing effect in brain (Test Example 3); format: in vivo, rat; settings: male SD rats, 14 administrations, arteria cerebri media occluded 2 h, 8 hrs reperfusion, right cerebral cortices and striata, mean ± standard error, N = 8
Protocol: Each of 6-week old male SD rats (eight rats per group) was forced oral administration of a vehicle or test compound 1 using a gastric sonde by the volume of 5 mL/kg so that the doses became 2, 20 mg/kg, respectively. The day after 14 times of administration, a silicone plug was inserted from the carotid artery under halothane anesthetic to occlude proximal portion of the arteria cerebri media. After two hours, the plug was removed under light anesthetic, and reperfusion was carried out. After 8 hrs of reperfusion, the rats were beheaded to slaughter. The right cerebral cortices and striata were collected, frozen on dry ice and preserved at −80° C. On the following day, the right cerebral cortices and striata were homogenized and oxidized with iron(III) chloride. After extraction with ethanol/hexane, the concentration of ubiquinone was determined by HPLC (Table 3).

cerebral infarction = test: Cerebral infarction suppressing effect (Test Example 4); format: in vivo, rat; settings: male SD rats, 14 administrations, arteria cerebri media occluded 2 h, 48 hrs reperfusion, TTC staining, mean ± standard error, N = 19-22
Protocol: Each of 6-week old male SD rats (19 to 22 rats per group) was forced oral administration of a vehicle or test compound 1 using a gastric sonde by the volume of 5 mL/kg so that the doses became 2, 20 mg/kg, respectively, using a gastric sonde. The day after 14 times of administration, a silicone plug was inserted from the carotid artery under halothane anesthetic to occlude proximal portion of the arteria cerebri media. After two hours, the plug was removed under light anesthetic, and reperfusion was carried out. After 48 hrs of reperfusion, the rats were beheaded to slaughter. Six pieces of sliced brain from the forehead (thickness: 2 mm) were carved out and subjected to TTC staining (1% TTC, 37° C., 15 min). The TTC-stained image was photographed by a digital camera, and the area of cerebral infarction was measured by an image analyzer. (Table 4)

[3] = test system: ubiquinone (CoQ9) in liver and heart; test: Ubiquinone increasing effect in liver and heart (Test Example 2); format: in vivo, rat; settings: male SD rats, mean ± standard error, N = 8
Protocol: as §1, with “to slaughter. Liver and hearts were collected” for “to slaughter. Hearts were collected”, “day, the livers and hearts were” for “day, the hearts were”, “HPLC (Table 2).” for “HPLC (Table 1).”

[4] = 2 mg/kg oral once per day for 15 days
[5] = 20 mg/kg oral once per day for 15 days
[6] = 6 mg/kg oral once a day for 14 days
[7] = 20 mg/kg oral once a day for 14 days
[8] = 60 mg/kg oral once a day for 14 days

SMILES: CC(C)c1c(C(=O)Nc2ccccc2)c(-c2ccccc2)c(-c2ccc(F)cc2)n1CC[C@@H](O)C[C@@H](O)CC(=O)O [Atorvastatin]
- Area of myocardial infarction (myocardial infarction; [4]): 51 ± 4 % ischemic area
- Area of myocardial infarction (myocardial infarction; [5]): 47 ± 6 % ischemic area

SMILES: COc1cccc([C@H]2O[C@H](CC(=O)N3CCC(CC(=O)O)CC3)C(=O)N(CC(C)(C)COC(C)=O)c3ccc(Cl)cc32)c1OC [Compound 1, N-[[(3R,5S)-1-(3-acetoxy-2,2-dimethylpropyl)-7-chloro-5-(2,3-dimethoxyphenyl)-2-oxo-1,2,3,5-tetrahydro-4,1-benzoxazepin-3-yl]acetyl]piperidine-4-acetic acid]
- Amount of CoQ9 in heart [1, 6]: 214.4 ± 6.6 μg/g heart
- Amount of CoQ9 in heart [1, 7]: 215.3 ± 5.7 μg/g heart
- Amount of CoQ9 in heart [1, 8]: 225.0 ± 4.6 μg/g heart
- Amount of CoQ9 in brain ([2]; 2 mg/kg oral): 22.0 ± 0.4 μg/g brain
- Amount of CoQ10 in brain ([2]; 2 mg/kg oral): 13.0 ± 0.3 μg/g brain
- Amount of CoQ9 in brain ([2]; 20 mg/kg oral): 24.9 ± 0.5 μg/g brain
- Amount of CoQ10 in brain ([2]; 20 mg/kg oral): 14.7 ± 0.3 μg/g brain
- Volume of cerebral infarction (cerebral infarction; 2 mg/kg oral): 289 ± 27 mm^3
- Volume of cerebral infarction (cerebral infarction; 20 mg/kg oral): 220 ± 35* mm^3
- Area of myocardial infarction (myocardial infarction; [4]): 61 ± 4 % ischemic area
- Area of myocardial infarction (myocardial infarction; [5]): 43 ± 2 % ischemic area

SMILES: COc1cccc([C@H]2O[C@H](CC(=O)Nc3cccc(CCC(=O)O)c3)C(=O)N(CC(C)(C)CO)c3ccc(Cl)cc32)c1OC [Compound 2, 3-[3-[[(3R,5S)-7-chloro-5-(2,3-dimethoxyphenyl)-1-(3-hydroxy-2,2-dimethylpropyl)-2-oxo-1,2,3,5-tetrahydro-4,1-benzoxazepin-3-yl]acetyl]aminophenyl]propionic acid]
- Amount of CoQ9 in heart [3, 6]: 202.7 ± 2.7 μg/g heart
- Amount of CoQ9 in liver [3, 6]: 105.2 ± 3.5 μg/g liver
- Amount of CoQ9 in heart [3, 7]: 208.3 ± 4.6 μg/g heart
- Amount of CoQ9 in liver [3, 7]: 117.6 ± 4.6 μg/g liver
- Amount of CoQ9 in heart [3, 8]: 204.7 ± 4.0 μg/g heart
- Amount of CoQ9 in liver [3, 8]: 125.4 ± 3.4 μg/g liver
- melting point: 141 to 144 °C

SMILES: CCC(C)(C)C(=O)O[C@H]1C[C@@H](C)C=C2C=C[C@H](C)[C@H](CC[C@@H]3C[C@@H](O)CC(=O)O3)[C@H]21 [Simvastatin]
- Area of myocardial infarction (myocardial infarction; [4]): 51 ± 3 % ischemic area
- Area of myocardial infarction (myocardial infarction; [5]): 51 ± 2 % ischemic area
